Assay [1] deals with Class I PI3-kinases. As to conditions: each of the Class I PI3-kinases, cited from earlier work.
The target of assay [2] is CK2 protein kinase (Homo sapiens (Human), UniProt P68400). To be noted: cited from earlier work.
The test system of assay [3] is AKT phosphorylation (p-AKT Ser 473) in Ramos B-lymphocyte cell line. As to the kind of experiment: Mechanistic on-target cell assay: flow cytometry of AKT phosphorylation after anti-human IGM stimulation. Type of assay: cell-based. As for the experimental part:
Mechanistic-On Target Cell Assay
The reaction was stopped by fixing the cells with Paraformaldehyde 4% (final) for 10 minutes at room temperature. Cells were washed once with Phosphate Buffer Saline (PBS), permabilized in PBS-Triton X-100 0.2% for 15 minutes at room temperature washed twice with PBS and once with PBS-4% serum. […] Cells were washed twice in PBS and resuspended in PBS. The cell suspension was passed on a FC500 flow cytometer (Beckman Coulter), gating on the IGM positive cells and measuring the AKT phosphorylation.
Background: A flow cytometer gives signals particle by particle.

The test system of assay [4] is 4 PI3K isoforms (Human recombinant GST-PI3K). As to the kind of experiment: PI3K scintillation proximity assay, best IC50 obtained with the four isoforms (alpha, beta, delta, gamma). Type of assay: biochemical. To be noted: best IC50 obtained with the four isoforms of PI3K; read-out: Best potency measured on the 4 PI3K isoforms.

Where two headings read alike, the source gives them in different places.

CK2 protein kinase, sequence (P68400 whole entry): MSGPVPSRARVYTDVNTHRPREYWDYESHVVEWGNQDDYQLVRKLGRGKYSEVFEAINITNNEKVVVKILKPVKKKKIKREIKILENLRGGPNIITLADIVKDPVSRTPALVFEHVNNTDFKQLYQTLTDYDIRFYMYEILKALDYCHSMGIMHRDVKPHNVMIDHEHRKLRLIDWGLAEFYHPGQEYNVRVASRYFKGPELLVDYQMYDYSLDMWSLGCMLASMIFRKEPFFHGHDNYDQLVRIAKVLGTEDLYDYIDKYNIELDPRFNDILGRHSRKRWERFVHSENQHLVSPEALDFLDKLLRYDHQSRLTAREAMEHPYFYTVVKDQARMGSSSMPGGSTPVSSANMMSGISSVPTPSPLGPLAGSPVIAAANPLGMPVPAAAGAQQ

As to `O=c1cc(N2CCOCC2)oc2c(-c3ccccc3)cccc12` [LY294002], the IC50 in assay [1] (read-out: IC50 against each of these PI3-kinases) is 15 to 20 µM; in assay [2], 5 to 10 µM. Regarding `COC[C@H]1OC(=O)c2coc3c2[C@@]1(C)C1=C(C3=O)[C@@H]2CCC(=O)[C@@]2(C)C[C@H]1OC(C)=O` [Wortmannin], the IC50 in assay [1] (read-out: IC50 against each of the various Class I PI3-kinases) is 0.001 to 0.01 µM. For `O=C(c1nn(C2CCCCC2)c2c1CS(=O)(=O)c1ccccc1-2)N1CCOCC1` [Example 12, 1-cyclohexyl-3-(morpholin-4-ylcarbonyl)-1,4-dihydrothiochromeno[4,3-c]pyrazole 5,5-dioxide], the IC50 in assay [3] was found to be 0.167 µM; in assay [4] it was 0.136 µM. Consider `O=C(c1nn(C2CCCC2)c2c1CS(=O)(=O)c1ccccc1-2)N1CCOCC1` [Example 73, 1-Cyclopentyl-3-(morpholin-4-ylcarbonyl)-1,4-dihydrothiochromeno[4,3-c]pyrazole 5,5-dioxide], for which the IC50 was 0.317 µM in assay [3] and 0.205 µM in assay [4]. For `Cn1nc(C(=O)N2CCOCC2)c2c1-c1ccccc1S(=O)(=O)C2` [Example 34, 1-methyl-3-(morpholin-4-ylcarbonyl)-1,4-dihydrothiochromeno[4,3-c]pyrazole 5,5-dioxide] the same measures were 1.8 µM and 1.75 µM. The corresponding values for `O=C(c1nn(-c2ccccc2)c2c1CS(=O)(=O)c1c(F)cccc1-2)N1CCOCC1` [Example 15, 6-fluoro-3-(morpholin-4-ylcarbonyl)-1-phenyl-1,4-dihydrothiochromeno[4,3-c]pyrazole 5,5-dioxide] are 0.364 µM and 0.424 µM. The corresponding values for `O=C(c1nn([C@H]2CCCN(C3CCOCC3)CC2)c2c1CS(=O)(=O)c1ccccc1-2)N1CCOCC1` (single isomer, unassigned) [Example 401] are 3.63 µM and 0.34 µM. On to `O=C(c1nn([C@@H]2CCN(C3CCOCC3)C2)c2c1CS(=O)(=O)c1ccccc1-2)N1CCOCC1` (single isomer, unassigned) [Example 403], for which the IC50 came to 0.214 µM in assay [3] and 0.045 µM in assay [4]. The corresponding values for `COc1cccc2c1S(=O)(=O)Cc1c(C(=O)N3CCOCC3)nn(-c3ccccc3)c1-2` [Example 1, 6-methoxy-3-(morpholin-4-ylcarbonyl)-1-phenyl-1,4-dihydrothiochromeno[4,3-c]pyrazole 5,5-dioxide] are 0.57 µM and 0.459 µM. For `O=C(c1nn([C@H]2CCCN(CCN3CCOCC3)C2)c2c1CS(=O)(=O)c1cc(F)ccc1-2)N1CCOCC1` (stereo in doubt) [Example 472, 7-fluoro-3-(morpholin-4-ylcarbonyl)-1-[1-(2-morpholin-4-ylethyl)piperidin-3-yl]-1,4-dihydrothiochromeno[4,3-c]pyrazole 5,5-dioxide] the same measures were 0.045 µM and 0.014 µM.

These data come from patent US9073940B2, “Tricyclic pyrazol amine derivatives” (MERCK SERONO SA, priority 2009, dated 2015).
